Test results as given in article PMC7180948, “New Insights into 4-Anilinoquinazolines as Inhibitors of Cardiac Troponin I–Interacting Kinase (TNNi3K)” (Molecules, 2020).

How the values were obtained:
Assay in all cases: biochemical
Set-up in all cases: KINOMEscan competition binding panel (Eurofins DiscoverX), single concentration, % inhibition
Conditions in all cases: read-out: 7 at 1 µM % inhibition
[1] = biological target: NLK (Homo sapiens, UniProt Q9UBE8)
Summary of the method: (§1)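 KINOMEscan selectivity screen; >400 human kinases; compound at 1 µM, single concentration.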

[2] = biological target: FGFR4 (Homo sapiens, UniProt P22455)
Sequence of FGFR4 (P22455 whole entry): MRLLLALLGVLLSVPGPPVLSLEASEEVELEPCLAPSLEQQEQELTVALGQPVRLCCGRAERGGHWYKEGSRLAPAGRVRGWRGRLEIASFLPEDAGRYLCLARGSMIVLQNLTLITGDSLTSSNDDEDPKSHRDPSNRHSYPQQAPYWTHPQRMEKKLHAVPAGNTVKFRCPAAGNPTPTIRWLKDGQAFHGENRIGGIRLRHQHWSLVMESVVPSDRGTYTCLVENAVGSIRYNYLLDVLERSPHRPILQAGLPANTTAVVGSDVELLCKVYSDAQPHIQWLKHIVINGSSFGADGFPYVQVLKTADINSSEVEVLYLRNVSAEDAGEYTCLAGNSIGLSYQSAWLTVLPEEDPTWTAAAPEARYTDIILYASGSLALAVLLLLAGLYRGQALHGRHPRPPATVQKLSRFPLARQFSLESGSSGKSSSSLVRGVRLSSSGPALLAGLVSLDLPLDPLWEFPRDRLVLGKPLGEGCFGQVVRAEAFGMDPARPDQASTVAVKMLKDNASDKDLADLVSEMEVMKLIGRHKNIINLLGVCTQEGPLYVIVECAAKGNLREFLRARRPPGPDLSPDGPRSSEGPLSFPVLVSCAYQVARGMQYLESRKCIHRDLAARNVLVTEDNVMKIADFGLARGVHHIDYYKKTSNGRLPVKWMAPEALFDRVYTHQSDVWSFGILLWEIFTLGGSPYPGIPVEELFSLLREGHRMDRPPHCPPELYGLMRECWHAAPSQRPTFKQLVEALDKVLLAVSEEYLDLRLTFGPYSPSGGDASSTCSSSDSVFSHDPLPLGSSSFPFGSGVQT
Summary of the method: as §1

[3] = biological target: T1, JAK3(JH1domain-catalytic) (Homo sapiens, UniProt P52333)
T1 construct: JH1domain-catalytic
Summary of the method: as §1

[4] = biological target: TEC (Homo sapiens, UniProt P42680)
Sequence of TEC (P42680 whole entry): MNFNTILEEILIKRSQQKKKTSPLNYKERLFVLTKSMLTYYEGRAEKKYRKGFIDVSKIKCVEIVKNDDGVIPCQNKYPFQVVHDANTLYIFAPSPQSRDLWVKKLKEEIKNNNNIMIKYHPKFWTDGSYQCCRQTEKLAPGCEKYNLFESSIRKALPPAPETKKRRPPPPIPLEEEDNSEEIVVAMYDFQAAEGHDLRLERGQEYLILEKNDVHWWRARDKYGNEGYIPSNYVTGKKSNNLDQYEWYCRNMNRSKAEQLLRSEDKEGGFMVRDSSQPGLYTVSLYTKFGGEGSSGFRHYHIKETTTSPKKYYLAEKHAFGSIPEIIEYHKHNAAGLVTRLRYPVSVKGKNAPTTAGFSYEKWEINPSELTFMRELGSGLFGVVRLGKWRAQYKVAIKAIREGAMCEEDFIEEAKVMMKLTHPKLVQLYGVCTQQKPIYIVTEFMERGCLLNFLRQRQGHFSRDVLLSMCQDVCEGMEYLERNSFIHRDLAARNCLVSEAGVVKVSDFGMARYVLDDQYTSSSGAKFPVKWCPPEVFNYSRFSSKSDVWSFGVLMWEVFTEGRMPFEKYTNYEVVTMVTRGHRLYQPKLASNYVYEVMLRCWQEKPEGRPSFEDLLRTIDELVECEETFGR
Summary of the method: as §1

[5] = biological target: MYLK (Homo sapiens, UniProt Q15746)
Summary of the method: as §1

[6] = biological target: MAP3K15 (Homo sapiens, UniProt Q6ZN16)
Summary of the method: as §1

[7] = biological target: SRPK2 (Homo sapiens, UniProt P78362)
Summary of the method: as §1

[8] = biological target: MAPKAPK2 (Homo sapiens, UniProt P49137)
Summary of the method: as §1

[9] = biological target: CAMK4 (Homo sapiens, UniProt Q16566)
Summary of the method: as §1

[10] = biological target: TNIK (Homo sapiens, UniProt Q9UKE5)
Summary of the method: as §1

[11] = biological target: RIOK3 (Homo sapiens, UniProt O14730)
Summary of the method: as §1

[12] = biological target: WEE2 (Homo sapiens, UniProt P0C1S8)
Summary of the method: as §1

[13] = biological target: T2, RPS6KA5(Kin.Dom.2-C-terminal) (Homo sapiens, UniProt O75582)
T2 construct: Kin.Dom.2-C-terminal
Summary of the method: as §1

[14] = biological target: T3, LOK (Homo sapiens, UniProt O94804)
T3 construct: gene STK10
T3 sequence (O94804 whole entry): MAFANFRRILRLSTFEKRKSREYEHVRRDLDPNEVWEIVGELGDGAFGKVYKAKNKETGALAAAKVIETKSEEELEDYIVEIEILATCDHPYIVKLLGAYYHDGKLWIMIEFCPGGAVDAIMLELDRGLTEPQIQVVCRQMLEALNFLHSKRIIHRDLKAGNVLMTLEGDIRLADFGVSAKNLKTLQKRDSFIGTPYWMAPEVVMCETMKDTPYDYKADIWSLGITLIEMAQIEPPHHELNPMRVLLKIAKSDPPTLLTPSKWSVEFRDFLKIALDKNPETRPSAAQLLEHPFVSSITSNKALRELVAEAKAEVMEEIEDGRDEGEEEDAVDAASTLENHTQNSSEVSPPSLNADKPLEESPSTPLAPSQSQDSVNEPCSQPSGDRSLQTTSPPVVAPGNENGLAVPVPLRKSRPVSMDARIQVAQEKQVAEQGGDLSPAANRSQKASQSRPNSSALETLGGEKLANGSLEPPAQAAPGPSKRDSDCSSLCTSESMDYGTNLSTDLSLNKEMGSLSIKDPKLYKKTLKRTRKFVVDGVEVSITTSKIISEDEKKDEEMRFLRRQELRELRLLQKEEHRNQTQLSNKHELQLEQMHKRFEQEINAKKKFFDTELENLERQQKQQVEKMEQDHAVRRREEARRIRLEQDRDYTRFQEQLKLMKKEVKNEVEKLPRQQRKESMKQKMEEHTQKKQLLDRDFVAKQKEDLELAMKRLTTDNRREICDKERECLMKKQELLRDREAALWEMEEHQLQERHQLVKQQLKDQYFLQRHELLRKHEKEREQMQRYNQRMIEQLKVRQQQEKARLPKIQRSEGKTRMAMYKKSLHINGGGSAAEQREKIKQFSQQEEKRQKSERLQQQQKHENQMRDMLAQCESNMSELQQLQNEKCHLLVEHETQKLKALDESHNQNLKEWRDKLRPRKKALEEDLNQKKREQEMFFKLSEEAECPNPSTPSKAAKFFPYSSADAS
Summary of the method: as §1

[15] = biological target: T4, HPK1 (Homo sapiens, UniProt Q92918)
T4 construct: gene MAP4K1
Summary of the method: as §1

[16] = biological target: SYK (Homo sapiens, UniProt P43405)
Summary of the method: as §1

[17] = biological target: NEK2 (Homo sapiens, UniProt P51955)
Sequence of NEK2 (P51955 whole entry): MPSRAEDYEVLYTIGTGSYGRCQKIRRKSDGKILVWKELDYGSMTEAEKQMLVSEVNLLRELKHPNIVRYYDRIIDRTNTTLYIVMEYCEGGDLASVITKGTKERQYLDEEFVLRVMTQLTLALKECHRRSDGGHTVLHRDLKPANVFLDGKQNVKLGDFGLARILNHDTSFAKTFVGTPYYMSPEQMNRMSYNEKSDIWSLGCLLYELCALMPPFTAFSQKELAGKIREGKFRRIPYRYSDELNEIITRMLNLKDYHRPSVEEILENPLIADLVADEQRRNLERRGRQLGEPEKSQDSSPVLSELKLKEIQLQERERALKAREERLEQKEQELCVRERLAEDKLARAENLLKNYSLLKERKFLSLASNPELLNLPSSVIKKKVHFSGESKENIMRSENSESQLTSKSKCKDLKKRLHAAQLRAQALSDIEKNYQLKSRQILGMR
Summary of the method: as §1

[18] = biological target: PLK4 (Homo sapiens, UniProt O00444)
Summary of the method: as §1

[19] = biological target: T5, FAK (Homo sapiens, UniProt Q05397)
T5 construct: gene PTK2
Summary of the method: as §1

[20] = biological target: PIK3CA(H1047L) (Homo sapiens, UniProt P42336, H1047L)
Summary of the method: as §1

[21] = biological target: T6, DCAMKL2 (Homo sapiens, UniProt Q8N568)
T6 construct: gene DCLK2
T6 sequence (Q8N568 whole entry): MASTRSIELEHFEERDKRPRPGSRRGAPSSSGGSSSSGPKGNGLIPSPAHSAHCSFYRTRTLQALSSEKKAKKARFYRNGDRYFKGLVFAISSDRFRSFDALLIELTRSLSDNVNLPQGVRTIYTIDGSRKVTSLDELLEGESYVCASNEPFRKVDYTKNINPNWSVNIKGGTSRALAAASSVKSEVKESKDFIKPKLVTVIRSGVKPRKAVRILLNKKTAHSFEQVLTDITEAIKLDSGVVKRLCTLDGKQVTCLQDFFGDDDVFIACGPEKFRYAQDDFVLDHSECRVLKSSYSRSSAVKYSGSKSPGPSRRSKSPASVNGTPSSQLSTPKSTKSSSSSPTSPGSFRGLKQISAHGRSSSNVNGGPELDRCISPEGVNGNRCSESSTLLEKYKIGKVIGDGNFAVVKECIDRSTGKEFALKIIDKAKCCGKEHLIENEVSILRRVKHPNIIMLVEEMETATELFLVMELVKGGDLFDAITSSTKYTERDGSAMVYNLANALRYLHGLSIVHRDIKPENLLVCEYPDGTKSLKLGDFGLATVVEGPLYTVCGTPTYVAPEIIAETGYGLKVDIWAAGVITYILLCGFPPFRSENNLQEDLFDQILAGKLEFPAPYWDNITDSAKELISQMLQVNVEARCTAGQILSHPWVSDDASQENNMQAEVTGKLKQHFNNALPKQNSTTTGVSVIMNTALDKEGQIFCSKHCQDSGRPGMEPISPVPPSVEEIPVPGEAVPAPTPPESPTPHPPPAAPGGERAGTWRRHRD
Summary of the method: as §1

[22] = biological target: GSK3A (Homo sapiens, UniProt P49840)
Sequence of GSK3A (P49840 whole entry): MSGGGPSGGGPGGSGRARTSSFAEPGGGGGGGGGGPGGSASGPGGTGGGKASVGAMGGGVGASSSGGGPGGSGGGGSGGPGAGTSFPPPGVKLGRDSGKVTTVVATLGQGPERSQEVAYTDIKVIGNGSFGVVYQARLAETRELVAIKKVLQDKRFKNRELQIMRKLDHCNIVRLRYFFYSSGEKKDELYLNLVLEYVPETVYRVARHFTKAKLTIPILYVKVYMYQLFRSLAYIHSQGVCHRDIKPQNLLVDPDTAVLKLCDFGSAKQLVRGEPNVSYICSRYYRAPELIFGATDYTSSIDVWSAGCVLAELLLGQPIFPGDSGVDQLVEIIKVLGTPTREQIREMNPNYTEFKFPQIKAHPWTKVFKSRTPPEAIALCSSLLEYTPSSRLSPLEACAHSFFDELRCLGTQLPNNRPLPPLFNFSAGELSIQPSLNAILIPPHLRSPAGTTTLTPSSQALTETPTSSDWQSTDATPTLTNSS
Summary of the method: as §1

[23] = biological target: T7, p38-delta (Homo sapiens, UniProt O15264)
T7 construct: gene MAPK13
T7 sequence (O15264 whole entry): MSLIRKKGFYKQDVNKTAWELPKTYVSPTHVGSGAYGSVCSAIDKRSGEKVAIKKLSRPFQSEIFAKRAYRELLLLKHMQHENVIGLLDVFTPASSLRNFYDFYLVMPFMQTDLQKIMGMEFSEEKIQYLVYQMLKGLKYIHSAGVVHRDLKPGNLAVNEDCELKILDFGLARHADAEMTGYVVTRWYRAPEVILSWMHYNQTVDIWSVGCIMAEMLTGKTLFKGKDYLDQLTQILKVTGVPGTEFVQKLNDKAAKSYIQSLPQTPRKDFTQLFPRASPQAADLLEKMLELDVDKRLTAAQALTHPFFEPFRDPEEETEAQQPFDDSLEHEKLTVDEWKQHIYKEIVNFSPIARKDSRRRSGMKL
Summary of the method: as §1

[24] = biological target: T8, DLK (Homo sapiens, UniProt Q12852)
T8 construct: gene MAP3K12
Summary of the method: as §1

Sequence of NLK (Q9UBE8 whole entry): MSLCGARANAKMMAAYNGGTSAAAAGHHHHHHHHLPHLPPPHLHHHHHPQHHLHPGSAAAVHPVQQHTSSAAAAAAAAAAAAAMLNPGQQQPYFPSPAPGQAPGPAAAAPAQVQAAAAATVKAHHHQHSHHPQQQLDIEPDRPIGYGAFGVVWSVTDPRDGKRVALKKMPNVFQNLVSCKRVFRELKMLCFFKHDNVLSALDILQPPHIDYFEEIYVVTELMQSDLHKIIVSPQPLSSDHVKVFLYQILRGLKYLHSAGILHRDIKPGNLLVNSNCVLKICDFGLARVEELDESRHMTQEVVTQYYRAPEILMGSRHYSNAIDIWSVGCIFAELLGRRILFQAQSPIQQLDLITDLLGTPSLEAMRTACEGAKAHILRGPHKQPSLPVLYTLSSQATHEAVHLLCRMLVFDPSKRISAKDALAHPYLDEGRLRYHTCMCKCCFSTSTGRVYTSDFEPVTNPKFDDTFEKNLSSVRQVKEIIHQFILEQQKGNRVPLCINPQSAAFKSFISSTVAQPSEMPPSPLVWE

## CNS(=O)(=O)c1ccc(N(C)C)c(Nc2ncnc3cc(OC)c(OC)cc23)c1 [compound 7, 3-((6,7-dimethoxyquinazolin-4-yl)amino)-4-(dimethylamino)-N-methylbenzenesulfonamide]
[1]
  inhibition at 1 µM: 24%
[2]
  inhibition at 1 µM: 0%
[3]
  inhibition at 1 µM: 17%
[4]
  inhibition at 1 µM: 0%
[5]
  inhibition at 1 µM: 9%
[6]
  inhibition at 1 µM: 4%
[7]
  inhibition at 1 µM: 15%
[8]
  inhibition at 1 µM: 0%
[9]
  inhibition at 1 µM: 0%
[10]
  inhibition at 1 µM: 7%
[11]
  inhibition at 1 µM: 0%
[12]
  inhibition at 1 µM: 0%
[13]
  inhibition at 1 µM: 0%
[14]
  inhibition at 1 µM: 44%
[15]
  inhibition at 1 µM: 0%
[16]
  inhibition at 1 µM: 0%
[17]
  inhibition at 1 µM: 2%
[18]
  inhibition at 1 µM: 7%
[19]
  inhibition at 1 µM: 8%
[20]
  inhibition at 1 µM: 0%
[21]
  inhibition at 1 µM: 0%
[22]
  inhibition at 1 µM: 0%
[23]
  inhibition at 1 µM: 0%
[24]
  inhibition at 1 µM: 21%
